Literature values in patent US8536378B2 (The Board of Trustees of the Leland Stanford Junior …, priority 2007, dated 2013).

Legend:
latent HIV = details: latently infected CD4+ T cells
[1] = compared with other phorbol esters such as PMA
[2] = test system: T-lymphoblastoid CEM-SS and C-8166 cell lines; details: in vitro
[3] = estimate in reference note 20
latent HIV-1 = details: fold more potent than prostratin

Compound	HIV gene expression / activation of latent HIV (latent HIV)	tumor-promoting activity [1]	cytotoxicity: concentration up to which no sign of cytotoxicity was observed ([2]; CEM-SS and C-8166 cell lines) [µM]	prostratin concentration at which cell viability was restored to the level of uninfected controls ([2]; HIV-infected CEM-SS and C-8166 cell lines)	CD4 receptors on cell surfaces (CD4 and CXCR4 receptors; CEM-SS and MT-4 cell lines)	estimated oral bioavailability [3] [%]	potency in activating latent HIV-1 relative to prostratin (latent HIV-1)	downregulation of CD4 and CXCR4 receptors (CD4 and CXCR4 receptors)
CCCCCCCCCCCCCC(=O)O[C@@H]1[C@@H](C)[C@@]2(O)[C@@H](C=C(CO)C[C@]3(O)C(=O)C(C)=C[C@@H]23)[C@@H]2C(C)(C)[C@]12OC(C)=O [PMA, phorbol 12-myristate-13-acetate, reference compound]	activate latent HIV							
CC(=O)O[C@@]12C[C@@H](C)[C@@]3(O)[C@@H](C=C(CO)C[C@]4(O)C(=O)C(C)=C[C@@H]34)[C@@H]1C2(C)C [prostratin, 12-deoxyphorbol-13-acetate]	induces HIV gene expression	does not exhibit the tumor-promoting activity	> 25	approximately 1 μM	significantly reduced	~28		
CC1=C[C@H]2[C@@]3(O)[C@H](C)C[C@]4(OC(=O)Cc5ccccc5)C([C@@H]3C=C(CO)C[C@]2(O)C1=O)C4(C)C (stereo partly drawn) [DPP, 12-deoxyphorbol-13-phenylacetate]							20-30 fold	downregulates CD4 and CXCR4 receptors at nanomolar concentrations
